According to patent US10975352B2, “Methods of enhancing cell survival of stem cells” (The Scripps Research Institute, priority 2008, dated 2021):

Key:
[1] = system: hESCs; assay: ALP positive colony formation / low-density survival assay of dissociated hESCs on Matrigel; assay type: cell-based, human; details: for Activity (% ALP positive colony formation by hESCs): Ratio of ALP positive colonies vs. total initially seeded cells
Experimental: Human ESC lines H1, HUES7 and HUES9 were cultured on irradiated MEF feeder cells in DMEM-F12 supplemented with 2 mM L-glutamine, lx nonessential amino acids, 20% serum replacement (Invitrogen) and 10 ng/ml basic Fibroblast growth factor (Invitrogen). Chemically-defined and feeder-free hESC culture was described previously (Yao, S. et al., Proc Natl Acad Sci USA 103 (18):6907-6912 (2006)). Briefly, hESCs were grown on Matrigel-coated tissue culture plates in N2B27-CDM (DMEM-F12 supplemented with 1×N2 supplements, lx B27 supplements, 2 mM L-glutamine, 0.11 mM 2-mercaptoethanol, lx nonessential amino acids, and 0.5 mg/ml BSA (fraction V)) and 20 ng/ml bFGF. Human ESCs were passaged every 5-6 days with 0.05% trypsin.
For clonal survival assays, single hESCs were diluted to clonal density and plated onto 96-well Matrigel-coated plate. For low-density survival assays, 500 cells were plated onto 96-well Matrigel-coated plate. To visualize hESC colonies, cultures were fixed in 4% paraformaldehyde in PBS for 5 min, washed once in PBS, then stained for alkaline phosphatase activity as described in manufacturer's instructions. ALP positive colonies were counted on an inverted microscope.
ALP detection kit and integrin antibodies were from Chemicon. AG825 (Erb2 inhibitor), AG1478 (EGFR inhibitor), PPP (IGFR1 inhibitor) were purchased from Calbiochem. Antibodies raised against the intracytoplasmic tail of E-cadherins (Transduction Laboratories, Lexington, Ky.) were used for immunoprecipitation. The antibody TS2/16 was from Pierce. Antibodies to the extracellular domain of E-cadherin molecule were from Zymed (Carlsbad). Antibodies against extracellular signal-regulated kinase/MAPK, EGFR1, ERB2, GADPH and phosphorylated form of AKT were from Cell Signaling. Mouse monoclonal anti-phosphotyrosine (4G-10 clone) was from Upstate Biotechnology. Ptn and Tzv were added to culture medium at 2 μM. […]

[2] = system: hESCs; assay: Cell adhesion assay; assay type: cell-based, human
Experimental: Cell adhesion assays were performed in 96-well microtiter plates coated with Matrigel. After trypsin, hESCs were resuspended in the chemically-defined media containing the desired compounds. Cells were then added to the microtiter wells and incubated for 3 h at 37° C. Unbound and loosely bound cells were removed by shaking and washing, and the remaining cells were then fixed immediately. The wells were washed 3 times with 200 μl of H2O, and attached cells were stained with Crystal Violet (Sigma). The absorbance of each well at 570 nm was then measured. For experiments with blocking antibodies, cells were pre-incubated with antibodies on ice for 30 min, and adhesion assays were performed in the presence of antibodies. Each sample was assayed independently for three times.

[3] = system: hESCs; assay: Cell death analysis of dissociated hESCs in suspension culture; assay type: cell-based, human
Description: hESCs are known to be difficult in forming embryoid bodies (EBs) in suspension culture after single cell dissociation due to extensive cell death. Thus, we also tested whether Tzv or Ptn could promote survival of dissociated hESCs in suspension. […] Because cell aggregation is most often mediated through cell-cell adhesions and E-cadherin is the primary cell-cell adhesion molecule, as well as highly expressed in hESCs (Eastham, A. M. et al., Cancer Res 67 (23): 11254-11262 (2007)), we tested the effect of a specific E-cadherin blocking antibody on multicellular aggregate formation.
The hESCs under different treatments were dissociated by trypsin and fixed by 4% paraformaldehyde. And the staining was carried out according to the manufacturer's instructions (MBL Laboratories, Watertown, Mass.). After staining, samples were analysed by flow cytometry using a FACS Calibur flow cytometer (BD).

[4] = system: hESCs; assay: Karyotyping (G-banding) of long-term expanded hESCs; assay type: cell-based, human; details: more than 20 generations; chemically-defined medium
Experimental: Teratoma formation experiments were performed by injecting 3-5 million hESCs (maintained in the presence of compounds Tvz or Ptn) under the kidney capsule of nude mice. After 4-5 weeks, all mice developed teratomas, which were removed and then immunohistologically analyzed by The Scripps Research Institute Research Histology Service and Animal Resources. Compounds treated cells were karyotyped by standard G-banding at the Children's Hospital Oakland, Cytogenetics Laboratory. No chromosomal abnormality was found in the 10 randomly picked nuclei.

[5] = system: growth factor receptors, AKT and ERK; assay: Western blot of phosphorylation status in hESCs; assay type: cell-based, human
Description: Interplay between physical/structural environment and growth factor plays a very important role in cell fate regulation (Comoglio, P. M., Boccaccio, C., & Trusolino, L., Curr Opin Cell Biol 15 (5):565-571 (2003)). To examine whether growth factors are involved in integrin-mediated hESC survival, we treated dissociated hESCs with Tzv or Ptn together with individual highly specific growth factor receptor inhibitors. […] Similarly inhibition of FGFR, IGFR, EGFR1 or Erb2 also greatly abolished Tzv-induced hESC survival in suspension culture.
Phosphatidylinositol-3-kinase (PI-3K) signaling and MAPK/ERK are major regulators for hESC self-renewal (Armstrong, L. et al., Hum Mol Genet 15 (11): 1894-1913 (2006); Paling, N. R. et al., J Biol Chem 279 (46):48063-48070 (2004); Pyle, A. D., Lock, L. F., & Donovan, P. J., Nat Biotechnol 24 (3):344-350 (2006); Li, J. et al., Differentiation 75 (4):299-307 (2007)). Phosphorylation of ERK and AKT, a downstream effector of PI-3K, were increased upon treatment of dissociated hESCs with Ptn, and this increase was abolished by integrin blocking antibody (FIG. 4e,f). Moreover, activation of AKT and ERK by Ptn was blocked by inhibitors of FGFR, IGFR, EGFR or Erb2 (FIG. 4g and data not shown).

[6] = system: stem cells; assay: Survival and anti-differentiation of stem cells ex vivo; assay type: cell-based; details: human and mouse embryonic, neural, skin, mesenchymal, hematopoietic, stromal and epithelial stem cells; contact immediately after isolation
Description: In some embodiments, the invention provides methods of promoting survival and anti-differentiation in stem cells ex-vivo.

[7] = system: epithelial to mesenchymal transition/EMT; assay: Induction of MET / inhibition of EMT; assay type: cell-based
[8] = system: β1 integrin; assay: Activated β1 integrin (HUTS-21 binding; flow cytometry, immunostaining); assay type: cell-based, human; details: PMA 10 nM; immunostaining of active β1 integrins
Description: To gain insights into the mechanism of β1 integrin regulation by Tzv and Ptn, we investigated whether the compounds' effect is due to changes of integrin expression. In contrast to E-cadherin, β1 integrin was not cleaved by trypsin. […] Thus, Tzv and Ptn are likely to affect cell adhesion by modulating integrin activity (FIG. 3 d,e). To examine the effects of compound treatment on the activity of β1 integrin, we used the monoclonal antibody HUTS-21, which specifically binds to the activated form of the 131 integrin (Luque, A. et al., J Biol Chem 271 (19):11067-11075 (1996)).
To assess the expression of E-cadherin, activated integrin and SSEA4, dissociated cells (3×10^5) were washed with PBS and resuspended in PBS containing 2% goat serum. Cells were then incubated with the appropriate antibody for 1 h at 4° C., washed with the blocking solution, and labeled with FITC-conjugated secondary antibody for 30 min at 4° C. Cells were then washed and analyzed on a FACS Calibur flow cytometer.

| SMILES | Activity (% ALP positive colony formation by hESCs) [1] | other results |
| --- | --- | --- |
| CNS(=O)(=O)c1ccc(Nc2nccc(N3CCCc4cc(O)ccc43)n2)cc1 | 5.7% | – |
| O=C(NCc1ccccc1)c1csc(Nc2ccncc2)n1 | 20.3% | – |
| CNS(=O)(=O)c1ccc(Nc2nccc(N3CCCc4cc(OC)ccc43)n2)cc1 | 3.1% | – |
| CC(C)CCNS(=O)(=O)c1ccc(Nc2nccc(N3CCCc4ccccc43)n2)cc1 | 3.4% | – |
| CN(C)CCCn1cc(C2=C(c3c[nH]c4ccccc34)C(=O)NC2=O)c2ccccc21 [bisindolylmaleimide I, reference compound] | – | effect on increased cell adhesion induced by Ptn ([2]; PKC inhibitor in combination with Ptn): could antagonize the increased cell adhesion; effect on cell adhesion induced by Tzv ([2]; PKC inhibitor in combination with Tzv): had no effect |
| COc1ccc2c(c1)CCCN2c1ccnc(Nc2ccc(S(=O)(=O)NCCC(C)C)cc2)n1 | 3.3% | – |
| O=S(=O)(NCC1CC1)c1ccc(Nc2nccc(N3CCCc4ccccc43)n2)cc1 | 5.2% | – |
| CNS(=O)(=O)c1ccc(Nc2nccc(N3CCCc4ccccc43)n2)cc1 | 3% | – |
| CNS(=O)(=O)c1ccc(Nc2nccc(N3CCc4ccccc4C3)n2)cc1 | 3.6% | – |
| O=C(NCC1CC1)c1ccc(Nc2nccc(N3CCCc4cc(O)ccc43)n2)cc1 | 2.9% | – |
| O=S(=O)(NCC1CC1)c1ccc(Nc2nccc(N3CCCc4cc(O)ccc43)n2)cc1 [Ptn, N-(cyclopropylmethyl)-4-(4-(6-hydroxy-3,4-dihydroquinolin-1(2H)-yl)pyrimidin-2-ylamino)benzenesulfonamide] | – | survival of dissociated hESCs in suspension culture [3]: had no effect; karyotype of hESCs serially passaged in compound-containing medium [4]: normal karyotype; phosphorylation of ERK and AKT ([5]; dissociated hESCs): increased; phosphorylation of growth factor receptor ([5]; hESCs treated for 2 h, DMSO control): significantly increased the phosphorylation; survival and anti-differentiation of stem cells [6]: effective in promoting survival and anti-differentiation; adhesion of dissociated hESCs to Matrigel or laminin [2]: dramatically increased adhesion; adhesion of hESCs to gelatin or poly-lysine [2]: not affected; MET induction and EMT inhibition [7]: can induce MET (the reverse of EMT) and inhibit EMT; survival of dissociated hESCs in adherent culture ([1]; adherent culture (e.g. Matrigel-coated plate)): promoted survival |
| O=S(=O)(NC1CC1)c1ccc(Nc2nccc(N3CCCc4cc(O)ccc43)n2)cc1 | 8% | – |
| O=C(NCc1ccccc1)c1csc(Nc2ccccn2)n1 | 5.2% | – |
| CC(C)CCNS(=O)(=O)c1ccc(Nc2nccc(N3CCc4ccccc4C3)n2)cc1 | 3.2% | – |
| CC(C)CCNS(=O)(=O)c1ccc(Nc2nccc(N3CCCc4cc(O)ccc43)n2)cc1 | 23.5% | – |
| O=S(=O)(NCC1CC1)c1ccc(Nc2nccc(Nc3ccccc3)n2)cc1 | 3.3% | – |
| O=S(=O)(NCC1CC1)c1ccc(Nc2nccc(N3CCCc4cc(O)ccc43)n2)cc1 [drawing 23] | 23.2% | – |
| O=C(NCc1ccccc1)c1csc(Nc2ccncn2)n1 [drawing 17] | 24.1% | – |
| COc1ccc(CNC(=O)c2csc(Nc3ccncn3)n2)cc1 | 5% | – |
| O=S(=O)(NCC1CC1)c1ccc(Nc2nccc(N3Cc4ccccc4C3)n2)cc1 | 3.5% | – |
| O=S(=O)(NC1CC1)c1ccc(Nc2nccc(N3CCc4ccccc43)n2)cc1 | 6.2% | – |
| CCCCCCCCCCCCCC(=O)O[C@@H]1[C@@H](C)[C@@]2(O)[C@@H](C=C(CO)C[C@]3(O)C(=O)C(C)=C[C@@H]23)[C@@H]2C(C)(C)[C@]12OC(C)=O [PMA, phorbol 12-myristate 13-acetate, reference compound] | – | cell adhesion and colony formation of dissociated hESCs [2]: substantial increase in cell adhesion and colony formation; integrin activation [8]: caused integrin activation |
| CC(C)CCNS(=O)(=O)c1cccc(Nc2nccc(N3CCCc4cc(O)ccc43)n2)c1 | 3.1% | – |
| O=S(=O)(NC1CC1)c1ccc(Nc2nccc(N3CCCc4ccccc43)n2)cc1 | 3.1% | – |
| CC(C)CCNS(=O)(=O)c1ccc(Nc2nccc(N3CCc4ccccc43)n2)cc1 | 3.1% | – |
| O=C(NCc1ccccc1)c1csc(Nc2ccccc2)n1 | 4.5% | – |
| O=S(=O)(NCC1CC1)c1ccc(Nc2nccc(N3CCc4ccccc43)n2)cc1 | 6.1% | – |
